Holding throughout (format): in vivo
Experiment [1] has as its system Cabbage Looper (Trichoplusia ni, TRIPNI). In words: Bioassays on Cabbage Looper (CL), 128-well diet tray assay. The following applies: Trichoplusia ni. In short, it runs like this: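 Test molecule was dissolved in 90:10 acetone-water, applied to artificial diet at 50 μg/cm^2 and allowed to dry. Second-instar larvae were then added, one to five per well, and trays held at 25° C for five to seven days before mortality was scored and averaged.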

Experiment [2] concerns Green Peach Aphid (Myzus persicae, MYZUPE). In words: Bioassays on Green Peach Aphid (GPA), foliar spray on cabbage seedlings. The following applies: 72 h. In short, it runs like this: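 Percent control (Abbott-corrected versus solvent-sprayed plants) comes from live-aphid counts three days after treatment at about 25° C. Test solution at 200 ppm was sprayed to runoff onto both leaf surfaces of cabbage seedlings infested a day earlier with 20-50 aphids; four replicate pots.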

Experiment [3] relates to Beet Armyworm (Spodoptera exigua, LAPHEG). In words: Bioassays on Beet Armyworm (BAW), 128-well diet tray assay. The following applies: Spodoptera exigua. The method in brief: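 Diet-overlay assay: 50 μg/cm^2 compound applied in 90:10 acetone-water to artificial diet, allowed to dry, then infested with 1–5 L2 larvae/well; 8 wells/compound; covered, vented; 25° C., 14:10 L:D, 5–7 d; % mortality per well, averaged.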

The subject of experiment [4] is Yellow Fever Mosquito (Aedes aegypti, AEDSAE). The conditions noted are these: for YFM rating: Table ABC / ABC-DP rating. The method in brief:
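Compounds from DMSO master plates (4000 ppm stock) diluted in 90:10 water/acetone, then dispensed into six replicate plates and infested with ~1-day-old Aedes aegypti larvae in liver-powder water. Held covered at room temperature for 3 days; each well scored for larval mortality and graded on a rating scale.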

Where [5] appears, read: Table ABC: Biological Results, species CL, read-out: CL.
Setting [6] is: Table ABC: Biological Results, species GPA, read-out: GPA.
[7] abbreviates: Table ABC: Biological Results, species BAW, read-out: BAW.
Setting [8] is: Table ABC: Biological Results, species YFM.
Setting [9] is: Cabbage Looper, Table ABC / ABC-DP rating, read-out: CL rating.
[10] abbreviates: Green Peach Aphid, Table ABC / ABC-DP rating, read-out: GPA rating.
Where [11] appears, read: Beet Armyworm, Table ABC / ABC-DP rating, read-out: BAW rating.
The mark [12] stands for this setting: Cabbage Looper, rating class, read-out: CL.
The mark [13] stands for this setting: Green Peach Aphid, rating class, read-out: GPA.
[14] abbreviates: Beet Armyworm, rating class, read-out: BAW.
Setting [15] is: Yellow Fever Mosquito, rating class.

The source of these data is patent publication US20250228239A1, “MOLECULES HAVING PESTICIDAL UTILITY, AND INTERMEDIATES, COMPOSITIONS, AND PROCESSES, RELATED THERETO” (priority 2024, published 2025).

Read-outs that look alike come from different tables or passages of the source.

With `Nc1ccc(F)c(NC(=O)c2cc(NC(=O)[C@H]3[C@H](c4cc(Cl)c(Cl)c(Cl)c4)C3(Cl)Cl)ccc2Cl)c1F` [F1228, N-(3-Amino-2,6-difluorophenyl)-2-chloro-5-((1R,3R)-2,2-dichloro-3-(3,4,5-trichlorophenyl)cyclopropane-1-carboxamido)benzamide], the pest or weed control at 50 µg/cm2 in experiment [1] (setting [5]) and in experiment [3] (setting [7]) was 50 to 100% throughout. Besides, the pest or weed control at 200 µg/mL in experiment [2] (setting [6]) was 0 to 80%. The YFM result in experiment [4] (setting [8]) is given as “A (80–100)”.

In the case of `O=C(Nc1cc(NC(=O)C(F)(F)Cl)c(F)cc1F)c1cc(NC(=O)[C@H]2[C@H](c3ccc(Cl)c(Cl)c3)C2(Cl)Cl)ccc1Cl` [F1243, 2-Chloro-N-(5-(2-chloro-2,2-difluoroacetamido)-2,4-difluorophenyl)-5-((1R,3R)-2,2-dichloro-3-(3,4-dichlorophenyl)cyclopropane-1-carboxamido)benzamide], the pest or weed control at 50 µg/cm2 in experiment [1] (setting [5]) and in experiment [3] (setting [7]) was 50 to 100% each time. Also, in experiment [2] (setting [6]), the pest or weed control at 200 µg/mL was 0 to 80%. Besides, the YFM entry in experiment [4] (setting [8]) was “A (80–100)”.

For `CCCNC(=O)c1c(F)ccc(NC(=O)[C@H]2[C@H](c3ccc(F)c(Cl)c3)C2(Cl)Cl)c1F` (relative stereo) [F2021, trans-3-(2,2-Dichloro-3-(3-chloro-4-fluorophenyl)cyclopropane-1-carboxamido)-2,6-difluoro-N-propylbenzamide], the pest or weed control at 50 µg/cm2 in experiment [1] (setting [9]) and in experiment [3] (setting [11]) was 50 to 100% each time. Further, the pest or weed control at 200 µg/mL in experiment [2] (setting [10]) was in the range of 80 to 100%. For the same compound, the YFM rating entry in experiment [4] (Yellow Fever Mosquito) was “A (80–100)”.

`CC(Br)C(=O)Nc1c(F)ccc(NC(=O)c2cc(NC(=O)[C@H]3[C@H](c4ccc(F)c(C(F)(F)F)c4)C3(Cl)Cl)ccc2Cl)c1F` (stereo partly drawn) [F1479, N-(3-(2-Bromopropanamido)-2,4-difluorophenyl)-2-chloro-5-((1R,3R)-2,2-dichloro-3-(4-fluoro-3-(trifluoromethyl)phenyl)cyclopropane-1-carboxamido)benzamide]: the pest or weed control at 50 µg/cm2 in experiment [1] (setting [12]) and in experiment [3] (setting [14]) was 50 to 100% in each case. Also, the pest or weed control at 200 µg/mL in experiment [2] (setting [13]) lay within 0 to 80%. In experiment [4] (setting [15]), the YFM result was “A (80–100)”.

Turning to `O=C(NCC(F)(F)F)c1c(Cl)ccc(NC(=O)[C@H]2[C@H](c3ccc(F)c(Cl)c3)C2(Cl)Cl)c1Cl` (relative stereo) [F2020, trans-2,6-Dichloro-3-(2,2-dichloro-3-(3-chloro-4-fluorophenyl)cyclopropane-1-carboxamido)-N-(2,2,2-trifluoroethyl)benzamide], the pest or weed control at 50 µg/cm2 in experiment [1] (setting [9]) and in experiment [3] (setting [11]) was 50 to 100% in each case. In addition, the pest or weed control at 200 µg/mL in experiment [2] (setting [10]) was 0 to 80%. For the same compound, in experiment [4] (Yellow Fever Mosquito), the YFM rating entry is given as “A (80–100)”.

Regarding `O=C(Nc1cc(NC(=O)C(F)F)c(F)cc1F)c1cc(NC(=O)[C@H]2[C@H](c3ccc(Cl)c(Cl)c3)C2(Cl)Cl)ccc1Cl` [F1242, 2-Chloro-5-((1R,3R)-2,2-dichloro-3-(3,4-dichlorophenyl)cyclopropane-1-carboxamido)-N-(5-(2,2-difluoroacetamido)-2,4-difluorophenyl)benzamide], the pest or weed control at 50 µg/cm2 in experiment [1] (setting [5]) and in experiment [3] (setting [7]) was 50 to 100% each time. In addition, the pest or weed control at 200 µg/mL in experiment [2] (setting [6]) lay in the range of 0 to 80%. The YFM result in experiment [4] (setting [8]) was “A (80–100)”.

For the compound `O=C(Cc1ccccc1)Nc1c(F)ccc(NC(=O)c2cc(NC(=O)[C@H]3[C@H](c4ccc(Cl)c(Cl)c4)C3(Cl)Cl)ccc2Cl)c1F` [F1673, 2-Chloro-5-((1R,3R)-2,2-dichloro-3-(3,4-dichlorophenyl)cyclopropane-1-carboxamido)-N-(2,4-difluoro-3-(2-phenylacetamido)phenyl)benzamide], the pest or weed control at 50 µg/cm2 in experiment [1] (setting [12]) and in experiment [3] (setting [14]) was 50 to 100% in each case. Also, the pest or weed control at 200 µg/mL in experiment [2] (setting [13]) was 0 to 80%. The YFM entry in experiment [4] (setting [15]) was “B (More than 0 – Less than 80)”.

For `O=C(Nc1ccc(F)cc1F)c1cc(NC(=O)[C@H]2[C@H](c3cc(Cl)c(Cl)c(Br)c3)C2(Cl)Cl)ccc1Cl` (relative stereo) [F1007, trans-5-(3-(3-Bromo-4,5-dichlorophenyl)-2,2-dichlorocyclopropane-1-carboxamido)-2-chloro-N-(2,4-difluorophenyl)benzamide], the pest or weed control at 50 µg/cm2 in experiment [1] (setting [5]) and in experiment [3] (setting [7]) was 50 to 100% throughout. For the same compound, the pest or weed control at 200 µg/mL in experiment [2] (setting [6]) was in the range of 80 to 100%. Besides, the YFM result in experiment [4] (setting [8]) is listed as “A (80–100)”.

In the case of `O=C(Nc1c(F)ccc(NC(=O)C(F)F)c1F)c1cc(NC(=O)[C@H]2[C@H](c3cc(Cl)c(Cl)c(Cl)c3)C2(Cl)Cl)ccc1Cl` [F1238, 2-Chloro-5-((1R,3R)-2,2-dichloro-3-(3,4,5-trichlorophenyl)cyclopropane-1-carboxamido)-N-(3-(2,2-difluoroacetamido)-2,6-difluorophenyl)benzamide], the pest or weed control at 50 µg/cm2 in experiment [1] (setting [5]) and in experiment [3] (setting [7]) was 50 to 100% throughout. The pest or weed control at 200 µg/mL in experiment [2] (setting [6]) was in the range of 0 to 80%. Further, the YFM entry in experiment [4] (setting [8]) is given as “A (80–100)”.

In the case of `O=C(Nc1ccc(F)c(NC(=O)C(F)F)c1F)c1cc(NC(=O)[C@H]2[C@H](c3ccc(Cl)c(C(F)(F)F)c3)C2(Cl)Cl)ccc1Cl` [F1657, 2-Chloro-5-((1R,3R)-2,2-dichloro-3-(4-chloro-3-(trifluoromethyl)phenyl)cyclopropane-1-carboxamido)-N-(3-(2,2-difluoroacetamido)-2,4-difluorophenyl)benzamide], the pest or weed control at 50 µg/cm2 in experiment [1] (setting [12]) and in experiment [3] (setting [14]) was 50 to 100% in each case. The pest or weed control at 200 µg/mL in experiment [2] (setting [13]) is 80 to 100%. Further, the YFM entry in experiment [4] (setting [15]) was “A (80–100)”.

As for `CC(F)(F)CNC(=O)c1cc(NC(=O)[C@H]2[C@H](c3cc(Cl)cc(Cl)c3)C2(Cl)Cl)ccc1Cl` (relative stereo) [F2075, trans-2-Chloro-5-(2,2-dichloro-3-(3,5-dichlorophenyl)cyclopropane-1-carboxamido)-N-(2,2-difluoropropyl)benzamide], the pest or weed control at 50 µg/cm2 in experiment [1] (setting [9]) and in experiment [3] (setting [11]) was 50 to 100% in each case. In experiment [2] (setting [10]), the pest or weed control at 200 µg/mL lay within 80 to 100%. Also, the YFM rating result in experiment [4] (Yellow Fever Mosquito) is on record as “B (More than 0 – Less than 80)”.

`O=C(Nc1ccc(F)c(NC(=O)C2CCCC2)c1F)c1cc(NC(=O)[C@H]2[C@H](c3ccc(F)c(C(F)(F)F)c3)C2(Cl)Cl)ccc1Cl` [F1643, 2-Chloro-N-(3-(cyclopentanecarboxamido)-2,4-difluorophenyl)-5-((1R,3R)-2,2-dichloro-3-(4-fluoro-3-(trifluoromethyl)phenyl)cyclopropane-1-carboxamido)benzamide]: the pest or weed control at 50 µg/cm2 in experiment [1] (setting [12]) and in experiment [3] (setting [14]) was 50 to 100% in each case. Also, the pest or weed control at 200 µg/mL in experiment [2] (setting [13]) is 0 to 80%. Also, the YFM result in experiment [4] (setting [15]) is “B (More than 0 – Less than 80)”.

Take `O=C(NCC(F)(F)F)c1cc(NC(=O)[C@H]2[C@H](c3ccc(F)c(Cl)c3F)C2(Cl)Cl)ccc1Cl` (relative stereo) [F2011, trans-2-Chloro-5-(2,2-dichloro-3-(3-chloro-2,4-difluorophenyl)cyclopropane-1-carboxamido)-N-(2,2,2-trifluoroethyl)benzamide]: the pest or weed control at 50 µg/cm2 in experiment [1] (setting [9]) and in experiment [3] (setting [11]) was 50 to 100% throughout. The pest or weed control at 200 µg/mL in experiment [2] (setting [10]) fell in the range of 0 to 80%. The YFM rating entry in experiment [4] (Yellow Fever Mosquito) was “A (80–100)”.

Regarding `O=C(Nc1ccc(F)c(NC(=O)C2CCCO2)c1F)c1cc(NC(=O)[C@H]2[C@H](c3ccc(F)c(Cl)c3)C2(Cl)Cl)ccc1Cl` (stereo partly drawn) [F1699, N-(3-(2-Chloro-5-((1R,3R)-2,2-dichloro-3-(3-chloro-4-fluorophenyl)cyclopropane-1-carboxamido)benzamido)-2,6-difluorophenyl)tetrahydrofuran-2-carboxamide], the pest or weed control at 50 µg/cm2 in experiment [1] (setting [12]) and in experiment [3] (setting [14]) was 50 to 100% each time. In addition, in experiment [2] (setting [13]), the pest or weed control at 200 µg/mL was 0 to 80%. Further, in experiment [4] (setting [15]), the YFM entry is recorded as “B (More than 0 – Less than 80)”.

Turning to `CCC(=O)Nc1c(F)ccc(NC(=O)c2cc(NC(=O)[C@H]3[C@H](c4ccc(F)c(C(F)(F)F)c4)C3(Cl)Cl)ccc2Cl)c1F` [F1371, 2-Chloro-5-((1R,3R)-2,2-dichloro-3-(4-fluoro-3-(trifluoromethyl)phenyl)cyclopropane-1-carboxamido)-N-(2,4-difluoro-3-propionamidophenyl)benzamide], the pest or weed control at 50 µg/cm2 in experiment [1] (setting [5]) and in experiment [3] (setting [7]) was 50 to 100% each time. Besides, the pest or weed control at 200 µg/mL in experiment [2] (setting [6]) fell in the range of 0 to 80%. Also, the YFM result in experiment [4] (setting [8]) is listed as “A (80–100)”.
